Measured values as given in ChEMBL document CHEMBL1201862, “PubChem BioAssay data set” (2004).
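Following 48 hours of exposure in 96-well plates, responses at five concentrations were used to interpolate endpoints linearly. Here, GI50 denotes the concentration required for 50% inhibition of growth.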 Active and inactive are the calls of the source. Cut-off read from the data, not from the text of the source: active = GI50 up to about 1.1 µM and inactive = higher.

Tests used:
Experiment in all cases: DTP human tumour cell line panel, 48 h
[1] = tested on: KM12
[2] = tested on: HT-29
[3] = tested on: MOLT-4
[4] = tested on: 786-0
[5] = tested on: NCI-H522
[6] = tested on: OVCAR-5
[7] = tested on: HL-60
[8] = tested on: NCI/ADR-RES
[9] = tested on: BT-549
[10] = tested on: M14
[11] = tested on: OVCAR-3
[12] = tested on: HCT-116
[13] = tested on: SK-MEL-2
[14] = tested on: UACC-62
[15] = tested on: U-251
[16] = tested on: PC-3
[17] = tested on: DU-145
[18] = tested on: CAKI-1
[19] = tested on: A498
[20] = tested on: RXF 393

SMILES | GI50 [1] | GI50 [2] | GI50 [3] | GI50 [4] | GI50 [5] | GI50 [6] | GI50 [7] | GI50 [8] | GI50 [9] | GI50 [10] | GI50 [11] | GI50 [12] | GI50 [13] | GI50 [14] | GI50 [15] | GI50 [16] | GI50 [17] | GI50 [18] | GI50 [19] | GI50 [20]
O=c1c2cc([N+](=O)[O-])cnc2sn1-c1ccc([N+](=O)[O-])cc1 | 26.4 µM (inactive) | 21.8 µM (inactive) | 32.1 µM (inactive) | 40.4 µM (inactive) | 7.28 µM (inactive) | 59.2 µM (inactive) | 26 µM (inactive) | 28.9 µM (inactive) | 40 µM (inactive) | 48.8 µM (inactive) | 34.6 µM (inactive) | 23.7 µM (inactive) | 23.8 µM (inactive) | 66.4 µM (inactive) | 49.5 µM (inactive) | 22 µM (inactive) | 45.7 µM (inactive) | – | – | –
COc1cccc2c1C(=O)c1c(O)c3c(c(O)c1C2=O)C[C@@](O)(C(=O)CO)C[C@@H]3OC1CC(N(C)C)C(O)C(C)O1 (stereo not given in full) | < 0.016 µM (active) | < 0.01 µM (active) | 0.0159 µM (active) | < 0.0197 µM (active) | < 0.011 µM (active) | 0.0643 µM (active) | 0.1 µM (active) | – | 0.0537 µM (active) | 0.0306 µM (active) | 0.0644 µM (active) | < 0.01 µM (active) | < 0.0212 µM (active) | < 0.012 µM (active) | < 0.0134 µM (active) | < 0.01 µM (active) | 0.0519 µM (active) | < 0.01 µM (active) | < 0.0116 µM (active) | 0.0138 µM (active)
O=C1Nc2ccccc2/C1=C1/Nc2ccccc2/C1=N\OCCOC1OCC(O)C(O)C1O (stereo not given) | 0.453 µM (active) | > 100 µM (inactive) | 85.7 µM (inactive) | > 100 µM (inactive) | > 100 µM (inactive) | > 100 µM (inactive) | > 100 µM (inactive) | > 100 µM (inactive) | > 100 µM (inactive) | 43.4 µM (inactive) | > 100 µM (inactive) | 32.8 µM (inactive) | 3.49 µM (inactive) | 95.1 µM (inactive) | > 100 µM (inactive) | 27.2 µM (inactive) | > 100 µM (inactive) | 6.78 µM (inactive) | – | 50.6 µM (inactive)
CC(=O)/C(=C/n1ccc(=O)[nH]c1=S)C(=O)Nc1ccccc1C | > 100 µM (inactive) | > 100 µM (inactive) | – | > 100 µM (inactive) | – | > 100 µM (inactive) | 82.6 µM (inactive) | > 100 µM (inactive) | > 100 µM (inactive) | > 100 µM (inactive) | > 100 µM (inactive) | > 100 µM (inactive) | > 100 µM (inactive) | > 100 µM (inactive) | > 100 µM (inactive) | – | > 100 µM (inactive) | > 100 µM (inactive) | > 100 µM (inactive) | > 100 µM (inactive)
CN(C)CCNC(=O)c1cccc(CO)c1[N+](=O)[O-] | > 100 µM (inactive) | > 100 µM (inactive) | > 100 µM (inactive) | > 100 µM (inactive) | > 100 µM (inactive) | > 100 µM (inactive) | > 100 µM (inactive) | > 100 µM (inactive) | > 100 µM (inactive) | > 100 µM (inactive) | > 100 µM (inactive) | > 100 µM (inactive) | > 100 µM (inactive) | > 100 µM (inactive) | > 100 µM (inactive) | > 100 µM (inactive) | > 100 µM (inactive) | > 100 µM (inactive) | > 100 µM (inactive) | –
O=C(Nc1ccccc1F)c1cc2ccc(O)cc2o/c1=N\c1cccc(F)c1 | 12.6 µM (inactive) | 37.5 µM (inactive) | 4.41 µM (inactive) | 15 µM (inactive) | 2.37 µM (inactive) | 23.7 µM (inactive) | 5.28 µM (inactive) | 12.8 µM (inactive) | 15.3 µM (inactive) | 15.7 µM (inactive) | 11.5 µM (inactive) | 11.1 µM (inactive) | 14.3 µM (inactive) | 11.8 µM (inactive) | 12.4 µM (inactive) | 18.6 µM (inactive) | 15 µM (inactive) | 19.5 µM (inactive) | 18.2 µM (inactive) | –
N=C(N)NCCCC(NC(=O)c1c2ccccc2nc2ccccc12)C(=O)O (stereo not given) | > 100 µM (inactive) | > 100 µM (inactive) | > 100 µM (inactive) | > 100 µM (inactive) | > 100 µM (inactive) | > 100 µM (inactive) | – | > 100 µM (inactive) | > 100 µM (inactive) | > 100 µM (inactive) | > 100 µM (inactive) | > 100 µM (inactive) | > 100 µM (inactive) | > 100 µM (inactive) | > 100 µM (inactive) | > 100 µM (inactive) | > 100 µM (inactive) | > 100 µM (inactive) | > 100 µM (inactive) | –
CCOC(=O)Nc1c(C#N)[n+]([O-])c2cc(Cl)c(Cl)cc2[n+]1[O-] | 18.2 µM (inactive) | 12 µM (inactive) | 8.71 µM (inactive) | 15.6 µM (inactive) | – | – | – | 20.7 µM (inactive) | 15.6 µM (inactive) | 16.9 µM (inactive) | 20.1 µM (inactive) | 14 µM (inactive) | 17.7 µM (inactive) | 10.7 µM (inactive) | 14.3 µM (inactive) | 7.28 µM (inactive) | 32.5 µM (inactive) | 19.4 µM (inactive) | 7.69 µM (inactive) | 15.1 µM (inactive)
CN(/N=C/c1cccs1)c1ccc([N+](=O)[O-])cc1[N+](=O)[O-] | > 100 µM (inactive) | > 100 µM (inactive) | > 100 µM (inactive) | > 100 µM (inactive) | > 100 µM (inactive) | – | > 100 µM (inactive) | > 100 µM (inactive) | > 100 µM (inactive) | > 100 µM (inactive) | > 100 µM (inactive) | > 100 µM (inactive) | – | > 100 µM (inactive) | > 100 µM (inactive) | > 100 µM (inactive) | > 100 µM (inactive) | > 100 µM (inactive) | – | > 100 µM (inactive)
O=[N+]([O-])c1cc2c(cc1/C=N/n1c(CO)nc3ccccc31)OCO2 | > 100 µM (inactive) | > 100 µM (inactive) | > 100 µM (inactive) | > 100 µM (inactive) | – | > 100 µM (inactive) | > 100 µM (inactive) | > 100 µM (inactive) | > 100 µM (inactive) | > 100 µM (inactive) | > 100 µM (inactive) | > 100 µM (inactive) | > 100 µM (inactive) | > 100 µM (inactive) | > 100 µM (inactive) | > 100 µM (inactive) | > 100 µM (inactive) | > 100 µM (inactive) | > 100 µM (inactive) | > 100 µM (inactive)
O=Cc1ccc(OC[C@H]2COC(=O)N2)cc1 | 37.8 µM (inactive) | > 100 µM (inactive) | > 100 µM (inactive) | > 100 µM (inactive) | 52.4 µM (inactive) | > 100 µM (inactive) | > 100 µM (inactive) | > 100 µM (inactive) | > 100 µM (inactive) | > 100 µM (inactive) | > 100 µM (inactive) | > 100 µM (inactive) | > 100 µM (inactive) | > 100 µM (inactive) | > 100 µM (inactive) | > 100 µM (inactive) | > 100 µM (inactive) | > 100 µM (inactive) | – | > 100 µM (inactive)
O=c1c2ccccc2nc(N/N=C/c2ccc([N+](=O)[O-])cc2)n1-c1ccccc1 | 36.3 µM (inactive) | > 100 µM (inactive) | 77.3 µM (inactive) | 5.37 µM (inactive) | 31.4 µM (inactive) | > 100 µM (inactive) | > 100 µM (inactive) | 13.4 µM (inactive) | 18 µM (inactive) | 31.7 µM (inactive) | 31.3 µM (inactive) | 5.05 µM (inactive) | – | 27 µM (inactive) | 15.1 µM (inactive) | 17.3 µM (inactive) | 26.9 µM (inactive) | 21.6 µM (inactive) | – | 7.87 µM (inactive)
N#Cc1cnn2cc[nH]c12 | > 100 µM (inactive) | > 100 µM (inactive) | > 100 µM (inactive) | > 100 µM (inactive) | > 100 µM (inactive) | > 100 µM (inactive) | > 100 µM (inactive) | > 100 µM (inactive) | > 100 µM (inactive) | > 100 µM (inactive) | > 100 µM (inactive) | > 100 µM (inactive) | > 100 µM (inactive) | > 100 µM (inactive) | > 100 µM (inactive) | > 100 µM (inactive) | > 100 µM (inactive) | > 100 µM (inactive) | > 100 µM (inactive) | –
NS(=O)(=O)c1nnc(NC(=O)/C=C/C(=O)O)s1 | > 100 µM (inactive) | > 100 µM (inactive) | > 100 µM (inactive) | > 100 µM (inactive) | > 100 µM (inactive) | > 100 µM (inactive) | > 100 µM (inactive) | > 100 µM (inactive) | > 100 µM (inactive) | > 100 µM (inactive) | > 100 µM (inactive) | > 100 µM (inactive) | > 100 µM (inactive) | > 100 µM (inactive) | > 100 µM (inactive) | – | > 100 µM (inactive) | > 100 µM (inactive) | > 100 µM (inactive) | > 100 µM (inactive)
O=C(NCCO)Nc1c(C(F)(F)F)cc(-c2ccccc2)[nH]c1=O | > 100 µM (inactive) | > 100 µM (inactive) | > 100 µM (inactive) | > 100 µM (inactive) | – | > 100 µM (inactive) | 19.8 µM (inactive) | > 100 µM (inactive) | > 100 µM (inactive) | > 100 µM (inactive) | > 100 µM (inactive) | > 100 µM (inactive) | > 100 µM (inactive) | > 100 µM (inactive) | > 100 µM (inactive) | > 100 µM (inactive) | > 100 µM (inactive) | > 100 µM (inactive) | > 100 µM (inactive) | > 100 µM (inactive)
